Drawing on patent publication US20250163047A1, “HETEROCYCLIC COMPOUNDS, COMPOSITIONS THEREOF, AND METHODS OF TREATMENT THEREWITH” (BeiGene, Ltd., priority 2022, published 2025), this text covers IC50 for 19 compounds.

The target in one experiment is T1, Cbl (aa49-434) (Homo sapiens, UniProt P22681).
T1 construct: Cbl (aa49-434, in-house); made in house
T1 sequence (P22681 49-434): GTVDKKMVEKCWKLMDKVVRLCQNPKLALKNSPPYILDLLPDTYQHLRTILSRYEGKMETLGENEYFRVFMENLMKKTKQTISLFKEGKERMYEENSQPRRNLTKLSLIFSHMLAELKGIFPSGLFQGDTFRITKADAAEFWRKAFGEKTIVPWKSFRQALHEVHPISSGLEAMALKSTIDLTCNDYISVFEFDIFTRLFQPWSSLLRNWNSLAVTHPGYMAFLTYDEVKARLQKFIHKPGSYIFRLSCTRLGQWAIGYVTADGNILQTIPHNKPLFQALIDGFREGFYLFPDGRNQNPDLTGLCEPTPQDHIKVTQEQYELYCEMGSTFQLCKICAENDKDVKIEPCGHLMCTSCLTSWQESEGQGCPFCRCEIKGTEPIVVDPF
Kind of experiment: Co-expressed Cbl with BirA biochemical assay (CBL/E2-Ub binding, HTRF). The settings on record: 0.6 nM Cbl co-expressed with BirA, read-out: co-express CBL/E2-Ub-binding assay IC50. An excerpt:
(§1) The assay in the absence of a Cbl-b/Cbl inhibitor, where phosphorylation of Cbl-b/Cbl by the Src kinase allows UbcH5B-Ub to bind to Cbl-b/Cbl and brings the Bodipy-Fluorescein tagged ubiquitin in proximity to the streptavidin-terbium bound to the N-terminal biotinylated Avi-tagged Cbl-b/Cbl. […] The lack of a FRET signal indicates Cbl-b/Cbl is inhibited by the Cbl-b/Cbl inhibitor.
On the technique in general: Time-resolved FRET reads energy transfer from a long-lived donor to a nearby acceptor.

The next experiment deals with T2, Cbl-b (aa36-427) (Homo sapiens, UniProt Q13191).
T2 construct: Cbl-b (aa36-427, in-house); made in house
T2 sequence (Q13191 36-427): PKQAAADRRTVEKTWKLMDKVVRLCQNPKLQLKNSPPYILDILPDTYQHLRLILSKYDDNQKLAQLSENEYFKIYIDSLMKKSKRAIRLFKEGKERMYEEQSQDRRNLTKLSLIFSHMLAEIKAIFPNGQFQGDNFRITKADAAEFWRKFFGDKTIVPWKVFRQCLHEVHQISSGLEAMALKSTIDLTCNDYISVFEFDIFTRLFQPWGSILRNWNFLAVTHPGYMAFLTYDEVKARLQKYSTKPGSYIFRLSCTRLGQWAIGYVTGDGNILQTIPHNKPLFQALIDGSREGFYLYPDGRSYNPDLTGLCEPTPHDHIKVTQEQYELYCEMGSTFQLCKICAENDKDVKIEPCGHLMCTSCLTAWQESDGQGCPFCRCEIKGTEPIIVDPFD
Description: Co-expressed Cbl-b with BirA biochemical assay (CBLB/E2-Ub binding, HTRF). Particulars: 0.6 nM Cbl-b co-expressed with BirA, HTRF; read-out: co-express CBLB/E2-Ub-binding assay IC50.
Description: as §1

For `C[C@H]1CCCN(Cc2cc(C(=O)Nc3cccc([C@]4(c5nncn5C)C[C@@H](CC#N)C4)c3)n3nccc3c2)C1` [Compound A11, 5-{[(3S)-3-methylpiperidin-1-yl]methyl}-N-{3-[(1s, 3s)-3-(cyanomethyl)-1-(4-methyl-1,2,4-triazol-3-yl)cyclobutyl]phenyl}pyrazolo[1,5-a]pyridine-7-carboxamide], the IC50 was determined as 46.2 nM on Cbl (aa49-434) and 6.6 nM at Cbl-b (aa36-427).
For `Cn1cnnc1[C@]1(c2cccc(NC(=O)c3cc(CNC4(C)CCC4)c4c(n3)C(C)(C)CN4)c2)C[C@H](CC#N)C1` [Compound C21, N-(3-((1s, 3s)-3-(cyanomethyl)-1-(4-methyl-4H-1,2,4-triazol-3-yl)cyclobutyl)phenyl)-3,3-dimethyl-7-(((1-methylcyclobutyl)amino)methyl)-2,3-dihydro-1H-pyrrolo[3,2-b]pyridine-5-carboxamido], the IC50 was 17.7 nM at Cbl (aa49-434) and 1.8 nM on Cbl-b (aa36-427).
In the case of `C[C@H]1CCCN(Cc2cc(C(=O)Nc3cccc([C@]4(c5nncn5C)C[C@@H](CC#N)C4)c3)nc3c2OCC3(C)C)C1` [Compound C10, 3,3-dimethyl-7-{[(3S)-3-methylpiperidin-1-yl]methyl}-N-{3-[(1s, 3s)-3-(cyanomethyl)-1-(4-methyl-1,2,4-triazol-3-yl)cyclobutyl]phenyl}-2H-furo[3,2-b]pyridine-5-carboxamide], the IC50 amounted to 26.6 nM on Cbl (aa49-434) and 2.3 nM at Cbl-b (aa36-427).
Turning to `C[C@H](NCc1cc(C(=O)Nc2cccc([C@]3(c4nncn4C)C[C@@H](C)C3)c2)nc2c1NCC2(C)C)C1CCC1` [Compound C46, 7-({[(1S)-1-cyclobutylethyl]amino}methyl)-3,3-dimethyl-N-{3-[(1r, 3s)-3-methyl-1-(4-methyl-1,2,4-triazol-3-yl)cyclobutyl]phenyl}-1H,2H-pyrrolo[3,2-b]pyridine-5-carboxamide], the IC50 at Cbl (aa49-434) is 1.8 nM; on Cbl-b (aa36-427) it was 0.7 nM.
The like results for `C[C@H]1CCCN(Cc2cc(C(=O)Nc3cccc([C@]4(c5nncn5C)C[C@@H](CC#N)C4)c3)nn3cccc23)C1` [Compound B14, 4-{[(3S)-3-methylpiperidin-1-yl]methyl}-N-{3-[(1s, 3s)-3-(cyanomethyl)-1-(4-methyl-1,2,4-triazol-3-yl)cyclobutyl]phenyl}pyrrolo[1,2-b]pyridazine-2-carboxamide] were, in that order, 89.9 nM and 13.6 nM.
For `C[C@H]1CCCN(Cc2cc(C(=O)Nc3cccc([C@]4(Cc5nncn5C)C[C@@H](C#N)C4)c3)nc3c(F)c[nH]c23)C1` [Compound B20, N-(3-((1r,3S)-3-cyano-1-((4-methyl-4H-1,2,4-triazol-3-yl)methyl)cyclobutyl)phenyl)-3-fluoro-7-(((S)-3-methylpiperidin-1-yl)methyl)-1H-pyrrolo[3,2-b]pyridine-5-carboxamide], in that order: 3.9 nM and 1.8 nM.
For `Cn1cnnc1[C@]1(c2cncc(NC(=O)c3cc(CNCC4CCC4)c4[nH]cc(F)c4n3)c2)C[C@H](C)C1` [Compound B46, 7-{[(cyclobutylmethyl)amino]methyl}-3-fluoro-N-{5-[(1r, 3s)-3-methyl-1-(4-methyl-1,2,4-triazol-3-yl)cyclobutyl]pyridin-3-yl}-1H-pyrrolo[3,2-b]pyridine-5-carboxamide], in that order: 2.7 nM and 0.7 nM.
With `Cn1cnnc1[C@]1(c2cncc(NC(=O)c3cc(CNC4(C)CCC4)c4[nH]cc(Cl)c4n3)c2)C[C@H](C)C1` [Compound B52, 3-chloro-N-(5-((1s, 3s)-3-methyl-1-(4-methyl-4H-1,2,4-triazol-3-yl)cyclobutyl)pyridin-3-yl)-7-(((1-methylcyclobutyl)amino)methyl)-1H-pyrrolo[3,2-b]pyridine-5-carboxamide], the IC50 turned out to be 19 nM on Cbl (aa49-434) and 5 nM on Cbl-b (aa36-427).
For `C[C@H](NCc1cc(C(=O)Nc2cccc([C@]3(c4nncn4C)C[C@@H](CC#N)C3)c2)nc2cc[nH]c12)C1CC1` [Compound B28, N-(3-((1s,3R)-3-(cyanomethyl)-1-(4-methyl-4H-1,2,4-triazol-3-yl)cyclobutyl)phenyl)-7-((((S)-1-cyclopropylethyl)amino)methyl)-1H-pyrrolo[3,2-b]pyridine-5-carboxamide], in that order: 2.2 nM and 0.8 nM.
For `C[C@H]1CCCN(Cc2cc(C(=O)Nc3cccc([C@]4(Cc5nncn5C)C[C@@H](C#N)C4)c3)nc3cc[nH]c23)C1` [Compound B7, N-(3-((1r,3S)-3-cyano-1-((4-methyl-4H-1,2,4-triazol-3-yl)methyl)cyclobutyl)phenyl)-7-(((S)-3-methylpiperidin-1-yl)methyl)-1H-pyrrolo[3,2-b]pyridine-5-carboxamide], in that order: 6.4 nM and 1.9 nM.
For `Cn1cnnc1[C@]1(c2cccc(NC(=O)c3cc(CNCC4(C)CCC4)c4c(n3)C(C)(C)CO4)c2)C[C@H](CC#N)C1` [Compound C25, N-(3-((1s, 3s)-3-(cyanomethyl)-1-(4-methyl-4H-1,2,4-triazol-3-yl)cyclobutyl)phenyl)-3,3-dimethyl-7-((((1-methylcyclobutyl)methyl)amino)methyl)-2,3-dihydrofuro[3,2-b]pyridine-5-carboxamide], in that order: 49.5 nM and 2.8 nM.
Consider `C[C@H](NCc1cc(C(=O)Nc2cccc([C@]3(c4nncn4C)C[C@@H](CC#N)C3)c2)nc2cc[nH]c12)C1CCCC1` [Compound B25, N-(3-((1s,3R)-3-(cyanomethyl)-1-(4-methyl-4H-1,2,4-triazol-3-yl)cyclobutyl)phenyl)-7-((((S)-1-cyclopentylethyl)amino)methyl)-1H-pyrrolo[3,2-b]pyridine-5-carboxamide], for which the IC50 at Cbl (aa49-434) is 1.1 nM; at Cbl-b (aa36-427), 1.2 nM.
For the compound `Cn1cnnc1[C@]1(c2cccc(NC(=O)c3cc(CN[C@H]4CCC(F)(F)C4)cn4ccnc34)c2)C[C@H](CC#N)C1` [Compound A23, N-(3-((1s,3R)-3-(cyanomethyl)-1-(4-methyl-4H-1,2,4-triazol-3-yl)cyclobutyl)phenyl)-6-((((S)-3,3-difluorocyclopentyl)amino)methyl)imidazo[1,2-a]pyridine-8-carboxamide], the IC50 turned out to be 11.4 nM on Cbl (aa49-434) and 1.4 nM at Cbl-b (aa36-427).
For `C[C@H]1CCCN(Cc2cc(C(=O)Nc3cccc(C4(c5nncn5C)CC(CC#N)C4)c3)nc3c2CCC3(C)C)C1` (stereo partly drawn) [Compound C7, (S)—N-(3-(3-(cyanomethyl)-1-(4-methyl-4H-1,2,4-triazol-3-yl)cyclobutyl)phenyl)-7,7-dimethyl-4-((3-methylpiperidin-1-yl)methyl)-6,7-dihydro-5H-cyclopenta[b]pyridine-2-carboxamide], in that order: 19.7 nM and 2.56 nM.
In the case of `C[C@H](NCc1cc(C(=O)Nc2cccc([C@]3(c4nncn4C)C[C@@H](CC#N)C3)c2)nc2cc[nH]c12)C1CCC1` [Compound B31, N-(3-((1s,3R)-3-(cyanomethyl)-1-(4-methyl-4H-1,2,4-triazol-3-yl)cyclobutyl)phenyl)-7-((((S)-1-cyclobutylethyl)amino)methyl)-1H-pyrrolo[3,2-b]pyridine-5-carboxamide], the IC50 at Cbl (aa49-434) is 0.7 nM; at Cbl-b (aa36-427), 0.8 nM.
For `C[C@H](NCc1cc(C(=O)Nc2cccc([C@]3(c4nncn4C)C[C@@H](C)C3)c2)nc2c1CCC2(F)F)C1CC1` [Compound C60, 4-((((S)-1-cyclopropylethyl)amino)methyl)-7,7-difluoro-N-(3-((1s,3R)-3-methyl-1-(4-methyl-4H-1,2,4-triazol-3-yl)cyclobutyl)phenyl)-6,7-dihydro-5H-cyclopenta[b]pyridine-2-carboxamide], in that order: 9.2 nM and 1.1 nM.
For `C[C@H]1CCCN(Cc2cc(C(=O)Nc3cccc([C@]4(c5nncn5C)C[C@@H](CC#N)C4)c3)nc3c(Cl)c[nH]c23)C1` [Compound B16, 3-chloro-N-(3-((1s,3R)-3-(cyanomethyl)-1-(4-methyl-4H-1,2,4-triazol-3-yl)cyclobutyl)phenyl)-7-(((S)-3-methylpiperidin-1-yl)methyl)-1H-pyrrolo[3,2-b]pyridine-5-carboxamide], in that order: 16.1 nM and 1.7 nM.
For `Cn1cnnc1CC1(c2cccc(NC(=O)c3cc(CN4CCCC(C(F)(F)F)C4)c4[nH]ccc4n3)c2)COC1` (centres unmarked) [Compound B9, N-(3-(3-((4-methyl-4H-1,2,4-triazol-3-yl)methyl)oxetan-3-yl)phenyl)-7-((3-(trifluoromethyl)piperidin-1-yl)methyl)-1H-pyrrolo[3,2-b]pyridine-5-carboxamide], in that order: 42.9 nM and 25.9 nM.
`C[C@H](NCc1cc(C(=O)Nc2cccc([C@]3(c4nncn4C)C[C@@H](CC#N)C3)c2)nc2c1NCC21CC1)C1CC1` [Compound C36, N-(3-((1s,3R)-3-(cyanomethyl)-1-(4-methyl-4H-1,2,4-triazol-3-yl)cyclobutyl)phenyl)-7′-((((S)-1-cyclopropylethyl)amino)methyl)-1′,2′-dihydrospiro[cyclopropane-1,3′-pyrrolo[3,2-b]pyridine]-5′-carboxamide]: the IC50 worked out at 2.8 nM on Cbl (aa49-434) and 1.8 nM on Cbl-b (aa36-427).
